# B1: ShZIS: 7-epizingiberene synthase protein from Solanum habrochaites, SEQ ID NO:1 (protein)
# chain: CSHSTPSSMNGFEDARDRIRESFGKVELSPSSYDTAWVAMVPSKHSLNEPCFPQCLDWIIENQREDGSWGLNPSHPLLLKDSLSSTLACLLALTKWRVGDEQIKRGLGFIETQSWAIDNKDQISPLGFEIIFPSMIKSAEKLNLNLAINKRDSTIKRALQNEFTRNIEYMSEGFGELCDWKEIIKLHQRQNGSLFDSPATTAAALIYHQHDKKCYEYLNSILQQHKNWVPTMYPTKIHSLLCLVDTLQNLGVHRHFKSEIKKALDEIYRLWQQKNEEIFSNVTHCAMAFRLLRISYYDVSSDELAEFVDEEHFFATSGKYTSHVEILELHKASQLAIDHEKDDILDKINNWTRTFMEQKLLNNGFIDRMSKKEVELALRNFYIISDLAENRRYIKSYEENNFKILKAAYRSPNINNKDLFIFSIRDFELCQAQHQEELQQLKRWFEDCRLDQLGLSEQFISASYLCAIPIVPGPELSDARLVYAKYVMLLTIVDDHFESFASTDECLNIIELVERWDDYASVGYKSERVKVLFSMFYKSIEEIATIAEIKQGRSVKNHLINLWLKVMKLMLMERVEWCSGKTIPRIEEYLYVSSITFGSRLIPLTTQYFIGIKISKDLLESDEIYGLCNFTGIVLRLLNDLQDSKREQKEGSINLVTLLMKSISEEEAIMKMKEILEMKRRELFKMVLVQKKGSQLPQLCKEIFWRTCKWAHFTYSQTDRYRFPEEMENHIDEVFYKPLNH
# modifications: Solanum habrochaites
# B2: ObZIS: sweet lemon basil zingiberene synthase (Iijima et al., 2004), alpha-zingiberene synthase (protein, UniProt Q5SBP4 1-541, looked up)
# Alpha-zingiberene synthase: MESRRSANYQASIWDDNFIQSLASPYAGEKYAEKAEKLKTEVKTMIDQTRDELKQLELIDNLQRLGICHHFQDLTKKILQKIYGEERNGDHQHYKEKGLHFTALRFRILRQDGYHVPQDVFSSFMNKAGDFEESLSKDTKGLVSLYEASYLSMEGETILDMAKDFSSHHLHKMVEDATDKRVANQIIHSLEMPLHRRVQKLEAIWFIQFYECGSDANPTLVELAKLDFNMVQATYQEELKRLSRWYEETGLQEKLSFARHRLAEAFLWSMGIIPEGHFGYGRMHLMKIGAYITLLDDIYDVYGTLEELQVLTEIIERWDINLLDQLPEYMQIFFLYMFNSTNELAYEILRDQGINVISNLKGLWVELSQCYFKEATWFHNGYTPTTEEYLNVACISASGPVILFSGYFTTTNPINKHELQSLERHAHSLSMILRLADDLGTSSDEMKRGDVPKAIQCFMNDTGCCEEEARQHVKRLIDAEWKKMNKDILMEKPFKNFCPTAMNLGRISMSFYEHGDGYGGPHSDTKKKMVSLFVQPMNITI
# Key:
# [1] = tested on: adult whiteflies B. tabaci; settings: Antonious et al. 2005; cited from earlier work
# [2] = tested on: fourth instar larvae of Colorado potato beetle; settings: Antonious et al. 2005; cited from earlier work
# [3] = tested on: Tuta absoluta; assay: No-choice oviposition assay Tuta absoluta; assay type: in vivo; settings: F2 plants, FIGS. 10A and 10B
# Procedure: Tuta absoluta (order: Lepidoptera) were reared on tomato (S. lycopersicum). A no-choice assay was performed for 7 days. 5 adults were allowed to oviposit their eggs on S. lycopersicum (C32) plants and on F2 plants arisen from an interspecies cross between S. lycopersicum (C32) and S. habrochaites (PI127826). After 7 days, Tuta abosoluta oviposition (number of eggs deposited) was determined on the abaxial and adaxial side of six leaves per plant genotype. F2 plants were characterized for 7-epizingiberene content after the assay and Tuta abosoluta oviposition (number of eggs deposited) was correlated to the content of 7-epizingiberene.
# [4] = tested on: Bemisia tabaci whiteflies; settings: cited from earlier work; for attractiveness of cultivated tomato to B. tabaci after addition of the compound: compared with neighbouring siblings, Bleeker et al. 2011; for repellent to Bemisia tabaci whiteflies: purified compounds, Bleeker et al., Phytochemistry 2011
# [5] = isolated compound; previously observed by Bleeker et al. 2011; cited from earlier work
# [6] = tested on: B. tabaci (biotype Q); assay: Clip cage bioassay B. tabaci (whitefly); assay type: in vivo, Bemisia tabaci; settings: clip cages, 20 adults, after 5 days; compared with S. lycopersicum C32
# Procedure: An interspecies cross between S. lycopersicum and S. habrochaites was performed and F2 lines were transferred to the greenhouse at the University of Amsterdam. The F2 plants were tested for their production of 7-epizingiberene. Cuttings were made of 7-epizingiberene producing F2 lines, S. lycopersicum C32 (moneymaker) and of S. habrochaites (PI127826). Both a parental line of the initial cross.
# Two cuttings of genotypes PI127826 and C32 and the respective F2s received 4 clip cages, each of which contained 20 adult B. tabaci (biotype Q) initially collected in Almeria (Spain) and reared continuously on cucumber under laboratory conditions (see Bleeker et al., 2009—Plant Physiol.). After 5 days, the total number and percentage of dead flies and total nr of eggs (combined abaxial and adaxial side of leaves) was determined.
# [7] = Enzyme activity assay with zFPP, products by enantioselective GC-MS; assay type: biochemical; settings: heterologously expressed in E. coli; SPME, chiral column
# Procedure: The full length gene (comprising SEQ ID NO:4 5′ of SEQ ID NO:2 (SEQ ID NO:4-SEQ ID NO:2)) was cloned into the pGEX-KG expression vector (Guan and Dixon 1991). Constructs were transformed to C41 (DE3) E. coli cells (Dumon-Seignovert et al., 2004). As a control, empty pGEX-KG vector was transformed. A culture was grown to an OD600 of 0.5-0.6 at 37° C. and placed at 4° C. for 30 min. Protein expression was induced with 1 mM isopropyl β-D-1-thiogalactopyranoside (IPTG). After 16 hours incubation at 16° C., cells were harvested by centrifugation. The supernatant was removed and the pellet was resuspended in assay buffer (25 mM HEPES, pH 7.2, 10 mM MgCl2, 10% (v/v) glycerol) with added lysozyme (1 mg mL^−1) and proteinase inhibitors and incubated on ice for 30 minutes and subsequently sonicated. The lysate was centrifuged and the supernatant was stored at −80° C. Activity assays were performed in 500 μL 50 mM HEPES, pH7.2, 100 mM KCl, 7.5 mM MgCl2, 20 μM MgCl2, 5% (v/v) glycerol, 5 mM DTT with 50 μL protein and 2 mM cis-FPP(2Z-6Z-farnesyl diphosphate) as substrate. Enzyme products were analyzed by GC-MS with Solid Phase Micro Extraction fiber (SPME). Terpene products were identified using standards and comparing ion spectra, retention time and Kovats Index (see FIGS. 1 and 2). […]
# [8] = Enzyme activity assay with E-E-FPP, products by enantioselective GC-MS; assay type: biochemical; settings: heterologously expressed; SPME, chiral column
# Procedure: Activity assays were performed in 20 mL glass vials in a total volume of 500 μL 50 mM HEPES, pH7.2, 100 mM KCl, 7.5 mM MgCl2, 20 μM MgCl2, 5% (v/v) glycerol, 5 mM DTT with 50 μL protein and either 2 mM cis-FPP (2Z-6Z-farnesyl diphosphate), trans-FPP (E-E-farnesyl diphosphate), GPP (geranyl diphosphate), NDP (neryl diphosphate), or GGPP (geranylgeranyl diphosphate) as a substrate (Echelon Biosciences Incorporated, Salt Lake City, USA). Vials were closed with a teflon lined crimp cap immediately and incubated under moderate shaking for 1 hour at 30° C.
# Enzyme products were sampled with a Solid Phase Micro Extraction fiber (SPME) for 10 minutes after the vial had been agitated and heated to 50° C. The fiber was desorbed for 1 minute in an Optic injector port (ATAS GL Int. Zoeterwoude, NL) which was kept at 220° C. For liquid injection 1-3 μL of sample in hexane was injected.
# In order to separate alpha-zingiberene from 7-epizingiberene the Astec CHIRALDEX™ B-DM column (30m×0.25 mm×0.12 μm film thickness; Supelco) was selected. The column was placed in an 6890 N gas chromatograph (Agilent, Amstelveen, NI). […] Helium was used as a carrier gas. Mass spectra were generated with the ion source set to −70V at 200° C. and collected with a Time-of-Flight MS (Leco, Pegasus III, St. Joseph, Mich., USA) at 1850 V, with an acquisition rate of 20 scans per second.
molecule,measurement,setting,value
CCCCCCCCCCCC(C)=O [2-tridecanone],toxic effect against adult whiteflies B. tabaci,[1],toxic effect
CCCCCCCCCC(C)=O [2-undecanone],toxic effect against fourth instar larvae of Colorado potato beetle,[2],toxic effect
CC(C)=CCC[C@@H](C)[C@@H]1C=CC(C)=CC1 [7-epizingiberene],correlation of oviposition with 7-epizingiberene content,[3],negatively correlated
same,attractiveness of cultivated tomato to B. tabaci after addition of the compound,[4],less attractive
same,repellent to Bemisia tabaci whiteflies,[4],act as repellent
same,stability when exposed to air,[5],spontaneously convert to R-curcumene
same,resistance to whiteflies (adult mortality and oviposition),[6],enhances resistance to whiteflies
CC(C)=CCC[C@@H](C)c1ccc(C)cc1 [R-curcumene],attractiveness of cultivated tomato to B. tabaci after addition of the compound,[4],less attractive
same,repellent to Bemisia tabaci whiteflies,[4],act as repellent
CC(C)=CCC[C@H](C)c1ccc(C)cc1 [S-curcumene],repellent to Bemisia tabaci whiteflies,[4],do not
CC(C)=CCC[C@H](C)[C@@H]1C=CC(C)=CC1 [alpha-zingiberene],repellent to Bemisia tabaci whiteflies,[4],do not
B1,product formed from Z-Z-FPP,[7],made 7-epizingiberene
B2,product formed from E-E-FPP,[8],made alpha-zingiberene
